The results in this text go back to US9357778B2, “N-acyl-2-(cyclo)alkypyrrolidines and piperidines useful as fungicides” (BAYER CROPSCIENCE AG, priority 2012, dated 2016).

Marks after values point to notes of the source that are not given here.

Data set [1] has as its system Leptosphaeria nodorum. The data set is described as follows: In vivo preventive test on Leptosphaeria nodorum (wheat). As to conditions: evaluated 8 days after inoculation. The procedure: In Vivo Preventive Test on Leptosphaeria nodorum (Wheat) • Solvent: 49 parts by weight of N,N-dimethylacetamide • Emulsifier: 1 part by weight of alkylaryl polyglycol ether To produce a suitable preparation of active compound, 1 part by weight of active compound or active compound combination is mixed with the stated amounts of solvent and emulsifier, and the concentrate is diluted with water to the desired concentration. To test for preventive activity, young plants are sprayed with the preparation of active compound or active compound combination at the stated rate of application. After the spray coating has been dried, the plants are sprayed with a spore suspension of Leptosphaeria nodorum. The plants remain for 48 hours in an incubation cabinet at approximately 20° C. and a relative atmospheric humidity of approximately 100%. The plants are placed in the greenhouse at a temperature of approximately 22° C. and a relative atmospheric humidity of approximately 80%. The test is evaluated 8 days after the inoculation. 0% means an efficacy which corresponds to that of the untreated control, while an efficacy of 100% means that no disease is observed.

Data set [2] deals with Tomato. Put plainly: Plant damages observed in the Alternaria solani preventive test (tomato). The data set is classed as in vivo. As to conditions: footnote to table B2. The procedure: In Vivo Preventive Test on Alternaria solani (Tomato) To test for preventive activity, young plants are sprayed with the preparation of active compound at the stated rate of application. One day after this treatment, the plants are inoculated with an aqueous spore suspension of Alternaria solani. The plants remain for one day in an incubation cabinet at approximately 22° C. and a relative atmospheric humidity of 100%. Then the plants are placed in an incubation cabinet at approximately 20° C. and a relative atmospheric humidity of 96%. Under the same conditions, high (at least 85%) to total protection is observed at a dose of 500 and 100 ppm of active ingredient with compound of example 12, 20 and 25, whereas poor (less than 20%) protection to 100% of plant damages is observed with compound 1.006, compound CMP1 (chloro analogue of compound 1.006) and compound CMP2 (fluoro analogue of compound 1.006) claimed in patent application WO-2009/153191 as in table B2: […]

For data set [3], the system named is Alternaria solani. The data set is described as follows: In vivo preventive test on Alternaria solani (tomato). As to conditions: evaluated 7 days after inoculation. The procedure:
In Vivo Preventive Test on Alternaria solani (Tomato) • Solvent: 49 parts by weight of N,N-dimethylformamide • Emulsifier: 1 part by weight of alkylarylpolyglycolether To produce a suitable preparation of active compound, 1 part by weight of active compound is mixed with the stated amounts of solvent and emulsifier, and the concentrate is diluted with water to the desired concentration. To test for preventive activity, young plants are sprayed with the preparation of active compound at the stated rate of application. One day after this treatment, the plants are inoculated with an aqueous spore suspension of Alternaria solani. The plants remain for one day in an incubation cabinet at approximately 22° C. and a relative atmospheric humidity of 100%. Then the plants are placed in an incubation cabinet at approximately 20° C. and a relative atmospheric humidity of 96%. The test is evaluated 7 days after the inoculation. 0% means an efficacy which corresponds to that of the untreated control while an efficacy of 100% means that no disease is observed.

Data set [4] in a line: log P by HPLC on reversed-phase column (C 18), EEC Directive 79/831 Annex V.A8. Format: physicochemical. As to conditions: 40° C., 0.1% aqueous formic acid and acetonitrile. The procedure:
In table 1, the log P values were determined in accordance with EEC Directive 79/831 Annex V.A8 by HPLC (High Performance Liquid Chromatography) on a reversed-phase column (C 18), using the method described below: Temperature: 40° C.; Mobile phases: 0.1% aqueous formic acid and acetonitrile; linear gradient from 10% acetonitrile to 90% acetonitrile. Calibration was carried out using unbranched alkan-2-ones (comprising 3 to 16 carbon atoms) with known log P values (determination of the log P values by the retention times using linear interpolation between two successive alkanones). lambda-max-values were determined using UV-spectra from 200 nm to 400 nm and the peak values of the chromatographic signals.

Data set [5] concerns Sphaerotheca fuliginea. Put plainly: In vivo preventive test on Sphaerotheca fuliginea (cucumber). As to conditions: 500 ppm of active ingredient, evaluated 7 days after inoculation. The procedure:
In Vivo Preventive Test on Sphaerotheca Fulicinea (Cucumber) • Solvent: 49 parts by weight of N,N-dimethylformamide • Emulsifier: 1 part by weight of alkylarylpolyglycolether To produce a suitable preparation of active compound, 1 part by weight of active compound is mixed with the stated amounts of solvent and emulsifier, and the concentrate is diluted with water to the desired concentration. To test for preventive activity, young plants are sprayed with the preparation of active compound at the stated rate of application. One day after this treatment, the plants are inoculated with an aqueous spore suspension of Sphaerotheca fuliginea. Then the plants are placed in a greenhouse at approximately 23° C. and a relative atmospheric humidity of approximately 70%. The test is evaluated 7 days after the inoculation. 0% means an efficacy which corresponds to that of the untreated control, while an efficacy of 100% means that no disease is observed.

In data set [6] the test system is Pyrenophora teres. The data set is described as follows: In vivo preventive test on Pyrenophora teres (barley). As to conditions: 500 ppm of active ingredient, evaluated 7-9 days after inoculation. The procedure:
In Vivo Preventive Test on Pyrenophora teres (Barley) • Solvent: 49 parts by weight of N,N-dimethylformamide • Emulsifier: 1 part by weight of alkylaryl polyglycol ether To produce a suitable preparation of active compound, 1 part by weight of active compound is mixed with the stated amounts of solvent and emulsifier, and the concentrate is diluted with water to the desired concentration. To test for preventive activity, young plants are sprayed with the preparation of active compound at the stated rate of application. One day after this treatment, the plants are inoculated with an aqueous spore suspension of Pyrenophora teres. The plants remain for 48 hours in an incubation cabinet at 22° C. and a relative atmospheric humidity of 100%. Then the plants are placed in a greenhouse at a temperature of approximately 20° C. and a relative atmospheric humidity of approximately 80%. The test is evaluated 7-9 days after the inoculation. 0% means an efficacy which corresponds to that of the untreated control while an efficacy of 100% means that no disease is observed.

With `Cn1nc(C(F)F)c(C(=O)N2CCC[C@H]2COc2c(Cl)cc(Cl)cc2Cl)c1Cl` [CMP1, [5-chloro-3-(difluoromethyl)-1-methyl-1H-pyrazol-4-yl]{(2S)-2-[(2,4,6-trichlorophenoxy)methyl]pyrrolidin-1-yl}methanone, reference compound], the Efficacy in data set [1] (100 ppm of active ingredient) and in data set [1] (500 ppm of active ingredient) was 0% in each case. Besides, the plant damages entry in data set [2] (100 ppm) and in data set [2] (500 ppm) was “^(a)together with 100% of plant damages” in each case.
As for `Cn1nc(C(F)F)c(C(=O)N2CCC[C@H]2COc2c(Cl)cc(Cl)cc2Cl)c1F` [CMP2, [3-(difluoromethyl)-5-fluoro-1-methyl-1H-pyrazol-4-yl]{(2S)-2-[(2,4,6-trichlorophenoxy)methyl]pyrrolidin-1-yl}methanone], the plant damages result in data set [2] (100 ppm) and in data set [2] (500 ppm) was “^(a)together with 100% of plant damages” in each case.
As for `Cn1cc(C(=O)N2CCC[C@H]2COc2c(Cl)cc(Cl)cc2Cl)c(C(F)F)n1` [Compound 1.006, [3-(difluoromethyl)-1-methyl-1H-pyrazol-4-yl]{(2S)-2-[(2,4,6-trichlorophenoxy)methyl]pyrrolidin-1-yl}methanone, reference compound], the Efficacy was 20 ^(b) % in data set [3] (100 ppm of active ingredient), 40% in data set [1] (100 ppm of active ingredient) and 60% in data set [1] (500 ppm of active ingredient). The plant damages entry in data set [2] (500 ppm) is given as “^(a)together with 100% of plant damages”.
Usually logP stands for a log measure of how a compound divides between an organic and an aqueous phase. Read a low logP as lower lipophilicity. Take `CCCCCCC1CCCN1C(=O)c1c(C(F)F)nn(C)c1F` (centres unmarked) [Example 8]: the log partition coefficient (logP) in data set [4] turned out to be 3.80. The Efficacy in data set [5] was 98%; in data set [6], 100%; in data set [1] (100 ppm of active ingredient), 90%; in data set [1] (500 ppm of active ingredient) it was 95%.
In data set [4], `Cn1nc(C(F)F)c(C(=O)N2CCCC2C2CCCCC2)c1Cl` (centres unmarked) [Example 10] gave a logP of 3.48. For the same molecule, the Efficacy in data set [5] is 90%; in data set [3] (500 ppm of active ingredient), 94%; in data set [6] it was 100%.
Consider `Cn1nc(C(F)F)c(C(=O)N2CCCC2C2CCCCC2)c1F` (centres unmarked) [Example 11], for which the logP in data set [4] stood at 3.31. The Efficacy is 95% in data set [5]; 94% in data set [3] (500 ppm of active ingredient); 100% in data set [6]; 80% in data set [1] (100 ppm of active ingredient); 95% in data set [1] (500 ppm of active ingredient).
In the case of `Cn1nc(C(F)F)c(C(=O)N2CCCC2C23CC4CC(CC(C4)C2)C3)c1F` (centres unmarked) [Example 14], in data set [4], the logP was 4.44. Also, the Efficacy is on record as 70% in data set [5], 94% in data set [3] (500 ppm of active ingredient) and 100% in data set [6].
For `Cn1cc(C(=O)N2CCCC2CC2CCCCC2)c(C(F)F)n1` (centres unmarked) [Example 15], in that order: 3.33, 85%, 89% and 100%.
On to `Cn1nc(C(F)F)c(C(=O)N2CCCC2CC2CCCCC2)c1F` (centres unmarked) [Example 17], for which the logP in data set [4] turned out to be 3.78. Further, the Efficacy in data set [5] is 100%; in data set [3] (500 ppm of active ingredient), 94%; in data set [6] it was 100%; in data set [1] (100 ppm of active ingredient), 80%; in data set [1] (500 ppm of active ingredient) it was 95%.
The molecule `Cn1nc(C(F)F)c(C(=O)N2CCCCC2C2CCCCC2)c1F` (centres unmarked) [Example 24] had a log partition coefficient (logP) in data set [4] of 3.60. Moreover, the Efficacy in data set [5] was determined as 95%; in data set [3] (500 ppm of active ingredient), 94%; in data set [6] it was 100%.
In data set [4], `Cn1cc(C(=O)N2CCCCC2C2CCCCC2)c(C(F)F)n1` (centres unmarked) [Example 25] had a logP of 3.15. The Efficacy in data set [5] worked out at 100%; in data set [3] (100 ppm of active ingredient), 90%; in data set [3] (500 ppm of active ingredient), 90%; in data set [6] it was 100%.
`Cn1nc(C(F)F)c(C(=O)N2CCCCC2CC2CCCCC2)c1F` (centres unmarked) [Example 26] had a logP in data set [4] of 4.19. Moreover, the Efficacy in data set [5], in data set [3] (500 ppm of active ingredient) and in data set [6] was 100% each time.
On to `Cn1nc(C(F)F)c(C(=O)N2CCCC2CC2CC3CCC2C3)c1F` (centres unmarked) [Example 48], for which the logP in data set [4] was found to be 3.89. The Efficacy in data set [5] was determined as 100%; in data set [3] (500 ppm of active ingredient), 100%; in data set [6] it was 100%; in data set [1] (500 ppm of active ingredient), 90%.
`Cn1cc(C(=O)N2CCCC2CC2CC3CCC2C3)c(C(F)F)n1` (centres unmarked) [Example 49] yielded a logP in data set [4] of 3.44. For the same molecule, the Efficacy worked out at 90% in data set [5], 94% in data set [3] (500 ppm of active ingredient), 100% in data set [6] and 70% in data set [1] (500 ppm of active ingredient).
